In patent US20260240974A1, “A T[…] VACCINE BASED ON VALIDATED TARGET EPITOPES” (Deutsches Krebsforschungszentrum Stiftung des öffentlichen …, priority 2023, published 2026) one finds presentation and ELISpot data, which are given here for 6 substances.

Assay [1] deals with HPV16-positive cells. The assay is described as follows: HLA immunoprecipitation and LC-MS of peptides presented by HPV16-positive cells. In kind it is cell-based, human. The arrangement: key: +: presentation: HLA-presentation of the peptide by HPV16-positive cells shown by MS. As to conditions: HLA-presentation by HPV16-positive cells shown by MS. The procedure: HLA immunoprecipitation (IP) was performed according to previously published protocols (Bassani-Sternberg et al., 2016; Chong et al., 2018). Briefly, HPV16+ cells were lysed with a lysis buffer containing 1% N-octyl-β-D glucopyranoside, 0.25% Na-Deoxycholate, protease inhibitor cocktail (Sigma-Aldrich, Mannheim, Germany)/PMSF (Carl Roth, Karlsruhe, Germany) in PBS. After centrifugation at 40,000×g, 4° C., for 30 min. HLA-peptide complexes were immuno-precipitated by incubation with mouse anti-human HLA-A,B,C monoclonal antibody (clone W6/32, Biolegend, San Diego, CA, USA) or in some cases HLA-type-specific antibody (HLA-A2: clone BB7.2, HLA-A3: clone GAP A3, HLA-A11/A24: clone Hb 164, HLA-B7: clone BB7.1) crosslinked to protein G Sepharose beads (Cytiva, Marlborough, MA, USA) or Protein A—Sepharose™ 4B (Invitrogen Corporation, Camarillo, CA, USA) for 4 h at 4° C. under constant mixing on a rotating wheel. Supernatant was discarded after centrifugation at 3200×g, for 3 min at RT. Pelleted HLA-peptide complexes bound to antibody-beads were washed 3 times in each of the following steps: first with ice-cold 20 mM Tris-HCl pH 8 containing 150 mM NaCl followed by the same buffer but with additional […] and finally with 20 mM Tris-HCl alone. Peptides were eluted from antibody-beads bound to HLA by 0.3% TFA. Resulting peptides were desalted by reverse-phase purification using a SepPak 96-well plate (Waters, Milford, MA, USA). Peptides eluted in 28% ACN in 0.1% TFA were dried by vacuum centrifugation (Concentrator plus, Eppendorf, Hamburg, Germany).
The set of predicted target peptides were acquired as stable isotope labelled (SIL) peptides from commercial suppliers (crude synthesis product; isotope purity >99 atom % ^13C and ^15N). First, analysis by direct infusion was performed in order to optimize normalized collision energy (NCE) for each single peptide in a mixture. NCE values were ranging from 4% to 42% and each value, in 2% steps, was measured 4 times for four charge states (1+ to 4+) of each peptide. Orbitrap Exploris 480 (Thermo Fisher Scientific) in targeted MS2 scan (PRM) was operated using 30K resolution at 200 m/z, standard automated gain control (AGC) target, 350 ms maximum injection time (IT), 1 micro scan in centroid data acquisition mode. For all measurements, isolation window was 0.4, 0.7, 1 or 1.5 m/z, depending on the mass of the precursor, as recommended by the manufacturer. Ion chromatograms of all expected transitions were extracted with 12 ppm mass tolerance from the centroided spectra and deconvoluted using purpose-made R scripts. The best NCE value was selected so that the intensity of any 5th most intense transitions is maximized, thereby maximizing the chance of detecting at least 5 transitions. The retention time (RT) for each peptide was determined by LC-MS in DDA mode with an inclusion list of target peptides in all four charge-states. The MS resolution was set to 120K, 3e6 AGC target, 50 ms maximum IT and the LC operated as described below.
For LC-MS, samples were dissolved in 2.5 to 5 μl of 5% ACN in 0.1% TFA with 50 fmol of Peptide Retention Time Calibration (PRTC) Mixture (88321, Pierce™) spiked in, followed by 3 min bath sonication. All samples were analysed by liquid chromatography (U-3000, Thermo Fisher Scientific) coupled to Orbitrap Exploris 480 (Thermo Fisher Scientific). […]

Assay [2] concerns short-term antigen-specific T cell lines generated from PBMCs. The arrangement: key: +: ELISPOT: Immungenicity of the peptide shown by IFN-gamma ELISPOT analysis. As to conditions: immunogenicity by IFN-gamma ELISPOT, * data from published resources, cited from earlier work.
Assay [3] concerns HPV16-positive cells. The arrangement: key: +: presentation: HLA-presentation of the peptide by HPV16-positive cells shown by MS. As to conditions: HLA-presentation by HPV16-positive cells shown by MS; * data from published resources; cited from earlier work.
For assay [4], the system named is short-term antigen-specific T cell lines generated from PBMCs. Put plainly: Interferon-γ ELISpot assay on short-term peptide-specific T cell lines from PBMCs. In kind it is cell-based, human. The arrangement: key: +: ELISPOT: Immungenicity of the peptide shown by IFN-gamma ELISPOT analysis. As to conditions: immunogenicity by IFN-gamma ELISPOT.

Read-outs that look alike come from different tables or passages of the source.

For “1 (ISEYRHYCY; Human papillomavirus 16) [compound 1]”, in assay [1], the presentation entry is given as “+”. In addition, the ELISpot result in assay [2] is “+*”.

As to “2 (YMLDLQPET; Human papillomavirus 16) [compound 2]”, the ELISpot entry in assay [2] was “+*”. The presentation result in assay [3] was “+*”.

As for “3 (TTLEQQYNK; Human papillomavirus 16) [compound 3]”, the ELISpot entry in assay [4] is “+”. Besides, in assay [1], the presentation entry is reported as “+”.

For the substance “4 (RAHYNIVTF; Human papillomavirus 16) [compound 4]”, the figures for the ELISpot entry in assay [4] (B15) and in assay [2] (B07) were “+(B15)” and “+*(B07)”, respectively. In assay [1], the presentation entry is reported as “+”.

In the case of “5 (RPRKLPQL; Human papillomavirus 16) [compound 5]”, the ELISpot result in assay [4] is listed as “+”. Further, the presentation entry in assay [1] was “+”.

On to “6 (LQPETTDLY; Human papillomavirus 16) [compound 6]”, for which the presentation entry in assay [1] is recorded as “+”. Also, the ELISpot result in assay [2] was “+*”.
